Experimental findings from PubChem BioAssay (NCI) are described below.

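1) Cells in 96-well plates. 2) Compound, 48 h, 5 concentrations. 3) Linear interpolation between surrounding doses. 4) Unreached endpoint = highest concentration. GI50 marks 50% less growth. TGI: total growth inhibition.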 Where only a bound is given, the exact number is not on record here.

Experiment in all cases: NCI-60 cell line screen, 48 h
The test system of experiment [1] is UACC-257 melanoma.
Experiment [2] deals with NCI-H226 lung.
Experiment [3] relates to HOP-62 NSCLC.
Experiment [4] concerns IGROV1 ovarian.
Experiment [5] has as its system NCI-H460 lung.
The test system of experiment [6] is OVCAR-4 ovarian.
Experiment [7] has as its system MOLT-4 leukemia.
The test system of experiment [8] is HCT-15 colon.
For experiment [9], the system named is SK-MEL-2 melanoma.
Experiment [10] relates to OVCAR-5 ovarian.

For the compound `COc1cc(/C=C/C(=O)C(=Cc2ccc(F)c(F)c2)C(=O)/C=C/c2ccc(O)c(OC)c2)ccc1O`, the GI50 in [1] is 1.78 µM; in experiment [2] it was 3.39 µM; in [3], 2.87 µM; in [4], 3.82 µM; in experiment [5], 2.68 µM; in [6], 2.96 µM. Further, the GI50 was 2.75 µM in experiment [7], 2.82 µM in [8], 1.81 µM in [9] and 3.25 µM in experiment [10]. For the same compound, the TGI is 4.37 µM in [1]; 12.1 µM in experiment [2]; 9.38 µM in experiment [3]; 67.9 µM in [4]; 6.96 µM in experiment [5]; 10.7 µM in [6]. In addition, the TGI in experiment [7] was above 100 µM; in experiment [8], 10.1 µM; in experiment [9], 3.58 µM; in experiment [10] it was 14.3 µM.
For the compound `CCSC1(SCC)CCN(C=NC(C)(C)C)C1`, the TGI in experiment [1], in experiment [2], in [3], in experiment [4], in experiment [5] and in experiment [6] was above 100 µM each time. The TGI in [7], in experiment [8], in [9] and in experiment [10] was above 100 µM in each case.
Take `O=C1NC(=NCc2cccs2)SC1Cc1ccc2ncccc2c1` (stereo not given): the GI50 in [1] is 15.5 µM; in [2], above 25 µM; in [3], 20.1 µM; in [4], above 16.5 µM; in experiment [5], 11.8 µM; in [6], above 25 µM. Further, the GI50 in experiment [7] is 14.5 µM; in experiment [8], 11.4 µM; in experiment [9] it was above 25 µM; in [10], above 25 µM. The TGI in experiment [1], in [2], in experiment [3], in experiment [4], in experiment [5] and in [6] was above 25 µM each time. Further, the TGI in experiment [7], in experiment [8], in experiment [9] and in experiment [10] was above 25 µM in each case.
`COC(=O)CCC(NC(=S)N/N=C(\C)c1ccccn1)C(=O)OC` (stereo not given): the TGI in [1], in [2], in [3], in [4], in [5] and in [6] was above 100 µM throughout. The TGI in [7], in [8], in experiment [9] and in [10] was above 100 µM each time.
As to `O=C(c1cc(=O)c2ccc(O)cc2o1)c1ccc(Cl)cc1Cl`, the TGI in experiment [1] was above 71.9 µM; in experiment [2], 99.6 µM; in experiment [3], above 100 µM; in [4] it was above 100 µM; in [5] it was above 100 µM; in [6], above 90.1 µM. The TGI was 22.3 µM in [7], above 100 µM in experiment [8], above 100 µM in [9] and above 100 µM in [10].
Turning to `CC/C(=N\Nc1nc2ccccc2n1C)c1ccccn1`, the GI50 in experiment [1] was 0.0735 µM; in experiment [2], 0.117 µM; in experiment [3] it was 0.175 µM; in experiment [4], 0.0294 µM; in experiment [5], 0.114 µM; in experiment [6] it was below 0.0185 µM. Also, the GI50 in [7] is below 0.0174 µM; in experiment [8] it was 0.0141 µM; in experiment [9] it was 0.589 µM; in [10], 0.156 µM. Besides, the TGI in [1] came to 2.64 µM; in experiment [2], 1.05 µM; in experiment [3], 3.34 µM; in [4] it was 7.76 µM; in experiment [5], 1.82 µM; in [6], 4.68 µM. Further, the TGI was 7.47 µM in [7], 12.9 µM in experiment [8], 14.9 µM in [9] and 15.6 µM in experiment [10].
As to `O=S(=O)(NCCNc1nccc(-c2c(-c3cccc(O)c3)nc3sccn23)n1)c1ccc(F)cc1`, the GI50 in experiment [1] was 0.568 µM; in [2] it was 7.03 µM; in [3], 13.8 µM; in experiment [4], 3.53 µM; in experiment [5], 4.2 µM; in experiment [6], 6.5 µM. The GI50 in experiment [7] was 5.53 µM; in experiment [8], 10.8 µM; in experiment [9] it was 4.49 µM; in [10] it was 17.8 µM. Besides, the TGI was found to be 16.5 µM in [1]; 45 µM in experiment [2]; 56.5 µM in [3]; 18.1 µM in experiment [4]; 22.8 µM in experiment [5]; 41.3 µM in experiment [6]. Further, the TGI in experiment [7] was 32 µM; in experiment [8], 55.4 µM; in [9] it was 20.2 µM; in experiment [10], 64.6 µM.
For the compound `CCOc1ccccc1NC(=O)C(=O)CC(=O)C1=C(C)Nc2ccccc2S1`, the TGI in experiment [1], in experiment [2], in experiment [3], in experiment [4], in experiment [5] and in [6] was above 100 µM in each case. Moreover, the TGI in experiment [7] was above 69.5 µM; in [8], above 100 µM; in experiment [9], above 100 µM; in experiment [10] it was above 100 µM.
